This is an account of results in patent US6514953B1, “Calcium (3S) tetrahydro-3-furanyl(1S,2R)-3-[[(4-aminophenyl)sulfonyl](isobutyl)amino]-1-benzyl-2-(phosphonooxy)propylcarbamate” (SmithKline Beecham Corporation, priority 1998, dated 2003).

The nature of the series: physchem.

Molecules are shown by their SMILES. In brackets after ≈: the same amount, converted by molar mass.

By solubility is commonly meant the concentration that dissolves in the medium under given conditions. High values mean much dissolved substance, low ones little dissolved substance. As to `CC(C)CN(C[C@@H](O)[C@H](Cc1ccccc1)NC(=O)O[C@H]1CCOC1)S(=O)(=O)c1ccc(N)cc1` (relative stereo) [amprenavir, [3S-[3R*(1R*,2S*)]]-[3-[[(4-aminophenyl)sulfonyl](2-methyl-propyl)amino]-2-hydroxy-1-phenylmethyl)propyl]-tetrahydro-3-furanyl ester, reference compound], the solubility is 0.29 mg/mL (≈ 574 µM) (0.1N HCl, pH 1, simulated gastric fluid) and 0.095 mg/mL (≈ 188 µM) (aqueous solution, pH 6.3, aqueous buffer).
`CC(C)CN(C[C@@H](OP(=O)([O-])[O-])[C@H](Cc1ccccc1)NC(=O)O[C@H]1CCOC1)S(=O)(=O)c1ccc(N)cc1.[Ca+2]` [compound of formula (I), calcium (3S) tetrahydro-3-furanyl (1S,2R)-3-[[(4-aminophenyl)sulfonyl](isobutyl)amino]-1-benzyl-2-(phosphonooxy)propylcarbamate]: the solubility is 3.2 mg/mL (pH 1.47, simulated gastric fluid); 61.1 mg/mL (pH 3.27, aqueous buffer); 9.41 mg/mL (pH 4.11, aqueous buffer); 3.2 mg/mL (pH 5.02, aqueous buffer); 0.531 mg/mL (pH 6.27, aqueous buffer).
